Laboratory results: ChEMBL document CHEMBL1128820, “Synthesis and evaluation of nitro 5-deazaflavins as novel bioreductive antitumor agents” (Bioorg Med Chem Lett, 1995)

What was measured:
Format in all cases: functional, cell-based
[1] = test system: KB; assay: In vitro antitumor activity against human epidermoid carcinoma KB cells by MTT assay.
[2] = test system: L1210; assay: In vitro antitumor activity against murine lymphoma L1210 cells by MTT assay.; conditions: Mus musculus
[3] = test system: KB; assay: In vitro antitumor activity against human epidermoid carcinoma KB cells by using MTT assay; No significant cytotoxicity
[4] = test system: L1210; assay: In vitro antitumor activity against murine lymphoma L1210 cells by using MTT assay; No significant cytotoxicity; conditions: Mus musculus

Row | SMILES | IC50 [1] [µM] | IC50 [2] [µM] | IC50 [3] [µM] | IC50 [4] [µM]
1 | CCCCCCCCn1c2nc(=O)n(CC(=O)OCC)c(=O)c-2cc2c([N+](=O)[O-])cccc21 | 7.6 | 3 |  | 
2 | CCCCCCCCCCCCn1c2nc(=O)[nH]c(=O)c-2cc2ccccc21 |  |  | > 200 | > 200
3 | CCCCCCCCCCCCn1c2nc(=O)n(C)c(=O)c-2cc2c([N+](=O)[O-])cccc21 | 6.8 | 1.6 |  | 
4 | CCCCCCCCn1c2nc(=O)n(CC(=O)OCC)c(=O)c-2cc2ccccc21 |  |  | > 200 | > 200
5 | CCCCCCCCn1c2nc(=O)n(-c3ccccc3)c(=O)c-2cc2cc([N+](=O)[O-])ccc21 | 7.6 | 9.6 |  | 
6 | CCCCCCCCCCCCn1c2nc(=O)n(C)c(=O)c-2cc2cccnc21 |  |  | > 200 | > 200
7 | CCCCCCCCCCCCn1c2nc(=O)n(C)c(=O)c-2cc2cc([N+](=O)[O-])ccc21 | 15.8 | 21.6 |  | 
8 | CCCCCCCCn1c2nc(=O)n(-c3ccccc3)c(=O)c-2cc2cccc([N+](=O)[O-])c21 | 6 | 1.5 |  | 
9 | CCCCCCCCn1c2nc(=O)n(CC(=O)OCC)c(=O)c-2cc2cc([N+](=O)[O-])ccc21 | 30 | 12 |  | 
10 | CCCCCCCCCCCCn1c2nc(=O)[nH]c(=O)c-2cc2ccc(C(F)(F)F)cc21 |  |  | > 200 | > 200
11 | CCCCCCCCCCCCn1c2nc(=O)[nH]c(=O)c-2cc2cc(C(F)(F)F)ccc21 |  |  | > 200 | > 200
12 | CCCCCCCCn1c2nc(=O)n(CC(=O)OCC)c(=O)c-2cc2ccc([N+](=O)[O-])cc21 | 7.6 | 8.4 |  | 
13 | CCCCCCCCn1c2nc(=O)n(-c3ccccc3)c(=O)c-2cc2ncccc21 |  |  | > 200 | > 200
14 | CCCCCCCCn1c2nc(=O)n(-c3ccccc3)c(=O)c-2cc2cccnc21 |  |  | > 200 | > 200
15 | CCCCCCCCCCCCn1c2nc(=O)[nH]c(=O)c-2cc2c([N+](=O)[O-])cccc21 | 3.2 | 0.4 |  | 
16 | CCCCCCCCn1c2nc(=O)n(-c3ccccc3)c(=O)c-2cc2c([N+](=O)[O-])cccc21 | 8.4 | 2.6 |  | 
17 | CCCCCCCCCCCCn1c2nc(=O)[nH]c(=O)c-2cc2cccc([N+](=O)[O-])c21 | 2.6 | 1.8 |  | 
18 | CCCCCCCCn1c2nc(=O)n(-c3ccccc3)c(=O)c-2cc2ccc([N+](=O)[O-])cc21 | 12.4 | 2.6 |  | 
19 | CCCCCCCCn1c2nc(=O)n(CC(=O)OCC)c(=O)c-2cc2cccc([N+](=O)[O-])c21 | 3.6 | 4 |  | 
20 | CCCCCCCCCCCCn1c2nc(=O)n(C)c(=O)c-2cc2cccc([N+](=O)[O-])c21 | 20 | 7.8 |  | 
21 | CCCCCCCCCCCCn1c2nc(=O)n(C)c(=O)c-2cc2ccccc21 |  |  | > 200 | > 200
22 | CCCCCCCCCCCCn1c2nc(=O)[nH]c(=O)c-2cc2ccc([N+](=O)[O-])cc21 | 12.8 | 2.5 |  | 
23 | CCCCCCCCn1c2nc(=O)n(-c3ccccc3)c(=O)c-2cc2ccccc21 |  |  | > 200 | > 200
24 | CCCCCCCCCCCCn1c2nc(=O)n(C)c(=O)c-2cc2ccc([N+](=O)[O-])cc21 | 8 | 5.2 |  | 
25 | CCCCCCCCCCCCn1c2nc(=O)[nH]c(=O)c-2cc2cc([N+](=O)[O-])ccc21 | 26.4 | 6.8 |  | 
26 | CO[C@@]12[C@H](COC(N)=O)C3=C(C(=O)C(C)=C(N)C3=O)N1C[C@@H]1N[C@@H]12 [MITOMYCIN] | 0.4 | 0.6 |  | 
27 | CCCCCCCCCCCCn1c2nc(=O)n(C)c(=O)c-2cc2ncccc21 |  |  | > 200 | > 200
